For test [1], the system named is Aβ40 in conditioned medium of cells stably expressing Amyloid Precursor Protein (APP). In words: In vitro BACE cell-based assay (Aβ40 in conditioned medium, sandwich ELISA). The method in brief: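 Secreted Aβ40 is captured with pAb40 and detected with biotinylated 6E10, read by europium time-resolved fluorescence. IC50 comes from percent inhibition versus concentration.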
On the technique in general: An ELISA detects its analyte on a solid surface through an enzyme-linked reagent.

The target in test [2] is Beta Secretase enzyme (BACE) (Homo sapiens, UniProt P56817). The test can be described thus: In vitro enzymatic BACE FRET (fluorescence resonance energy transfer) assay. Format: biochemical. The method in brief: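 Enzyme activity was measured at pH 4.2 (0.05 M acetate, 10% DMSO final, 100 uM genapol) by cleavage of a 50 nM quenched fluorogenic peptide. After one hour, Tris was added to neutralise the pH and fluorescence was recorded.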

[3] abbreviates: Homo sapiens, HEK293, average IC50, read-out: HEK cell assay.
Setting [4] is: average IC50, enzyme assay, read-out: BACE 1 FRET assay.
Setting [5] is: Homo sapiens, HEK293, average IC50, HEK cells, read-out: HEK cell assay.
[6] abbreviates: average IC50, read-out: HEK cell assay.

Like-named read-outs stand apart in the source and are kept apart here.

Sequence of Beta Secretase enzyme (BACE) (P56817 46-501, species assumed): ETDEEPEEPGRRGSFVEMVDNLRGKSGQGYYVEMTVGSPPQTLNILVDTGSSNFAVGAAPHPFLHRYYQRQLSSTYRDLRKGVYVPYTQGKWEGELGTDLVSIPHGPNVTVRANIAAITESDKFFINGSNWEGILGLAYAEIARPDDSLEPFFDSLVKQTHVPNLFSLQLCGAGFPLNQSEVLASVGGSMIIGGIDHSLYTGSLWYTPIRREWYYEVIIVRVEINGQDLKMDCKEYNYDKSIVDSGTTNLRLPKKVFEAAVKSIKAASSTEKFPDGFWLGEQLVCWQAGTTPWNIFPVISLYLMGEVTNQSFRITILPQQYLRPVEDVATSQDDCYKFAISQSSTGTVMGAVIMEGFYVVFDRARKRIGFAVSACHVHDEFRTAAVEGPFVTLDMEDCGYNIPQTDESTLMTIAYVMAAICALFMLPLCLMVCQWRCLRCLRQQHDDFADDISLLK

As for `COc1nc(C2=CCOCC2)cc2c1Oc1ccc(-c3cccnc3)cc1[C@@]21COC(N)=N1` [Example 840, (5S)-3-(3,6-dihydro-2H-pyran-4-yl)-1-methoxy-7-(3-pyridinyl)spiro[chromeno[2,3-c]pyridine-5,4′-[1,3]oxazol]-2′-amine], the IC50 in test [1] (setting [3]) is 0.015 µM; in test [2] (setting [4]) it was 0.0043 µM.
For the compound `NC1=N[C@]2(CS1)c1cc(-c3cccnc3F)ccc1Oc1ncc(C3=CCOCC3)cc12` [Example 577, (5R)-3-(3,6-dihydro-2H-pyran-4-yl)-7-(2-fluoro-3-pyridinyl)spiro[chromeno[2,3-b]pyridine-5,4′-[1,3]thiazol]-2′-amine], the IC50 in test [1] (setting [5]) was 0.0164 µM; in test [2] (setting [4]) it was 0.0017 µM.
As for `NC1=N[C@@]2(CO1)c1cc(-c3cccnc3F)ccc1Oc1c(F)cc(N3CC4CC4C3)cc12` (stereo partly drawn) [Example 1054, (4S)-2′-(3-azabicyclo[3.1.0]hex-3-yl)-4′-fluoro-7′-(2-fluoro-3-pyridinyl)spiro[1,3-oxazole-4,9′-xanthen]-2-amine], the IC50 stood at 0.062 µM in test [1] (setting [3]) and 0.0006 µM in test [2] (setting [4]).
`NC1=N[C@@]2(CO1)c1cc(-c3cc(Cl)ccc3Cl)ccc1Oc1ncc(C3=CCOCC3)cc12` [Example 501, (5S)-7-(2,5-dichlorophenyl)-3-(3,6-dihydro-2H-pyran-4-yl)spiro[chromeno[2,3-b]pyridine-5,4′-[1,3]oxazol]-2′-amine]: the IC50 in test [1] (setting [5]) stood at 0.027 µM; in test [2] (setting [4]), 0.0022 µM.
In the same order, the values of `NC1=N[C@@]2(CO1)c1cc(-c3cccnc3F)c(F)cc1Oc1c(F)cc(C3=CCCOC3)cc12` [Example 865, (4S)-7′-(5,6-dihydro-2H-pyran-3-yl)-3′,5′-difluoro-2′-(2-fluoro-3-pyridinyl)spiro[1,3-oxazole-4,9′-xanthen]-2-amine] are 0.005 µM and 0.0003 µM.
Regarding `NC1=N[C@@]2(CO1)c1cc(Oc3cccc(Cl)n3)ccc1Oc1c(F)cc(C3=CCOCC3)cc12` [Example 725, (4S)-7′-((6-chloro-2-pyridinyl)oxy)-2′-(3,6-dihydro-2H-pyran-4-yl)-4′-fluorospiro[1,3-oxazole-4,9′-xanthen]-2-amine], the IC50 in test [1] (setting [3]) is 1.92 µM; in test [2] (setting [4]) it was 0.0227 µM.
For the compound `CC#Cc1cncc(-c2ccc3c(c2)[C@@]2(COC(N)=N2)c2cc(-c4ccc(C)nc4)nc(F)c2O3)c1` [Example 741, (5S)-1-fluoro-3-(6-methyl-3-pyridinyl)-7-(5-(1-propyn-1-yl)-3-pyridinyl)spiro[chromeno[2,3-c]pyridine-5,4′-[1,3]oxazol]-2′-amine], the IC50 was 0.004 µM in test [1] (setting [3]) and 0.0004 µM in test [2] (setting [4]).
With `Cn1cc(-c2ccc3c(c2)[C@@]2(COC(N)=N2)c2cc(OCC4(C)COC4)c(F)cc2O3)cn1` [Example 332, (4S)-3′-fluoro-2′-((3-methyl-3-oxetanyl)methoxy)-7′-(1-methyl-1H-pyrazol-4-yl)spiro[1,3-oxazole-4,9′-xanthen]-2-amine], the IC50 in test [1] (setting [3]) was determined as 0.49 µM; in test [2] (setting [4]), 0.545 µM.
Turning to `NC1=N[C@]2(CS1)c1cc(-c3cccnc3)ccc1Oc1ncc(C3=CCOCC3)cc12` [Example 585, (5R)-3-(3,6-dihydro-2H-pyran-4-yl)-7-(3-pyridinyl)spiro[chromeno[2,3-b]pyridine-5,4′-[1,3]thiazol]-2′-amine], the IC50 in test [1] (setting [5]) was 0.0181 µM; in test [2] (setting [4]), 0.0025 µM.
On to `NC1=N[C@@]2(CO1)c1cc(OCc3cccc(F)c3)ccc1Oc1ncc(-c3cccnc3)cc12` [Example 982, (5S)-7-((3-fluorobenzyl)oxy)-3-(3-pyridinyl)spiro[chromeno[2,3-b]pyridine-5,4′-[1,3]oxazol]-2′-amine], for which the IC50 worked out at 0.644 µM in test [1] (setting [3]) and 0.0668 µM in test [2] (setting [4]).
On to “(5R)-3-bromo-7-iodospiro[chromeno[2,3-b]pyridine-5,4′-[1,3]oxazol]-2′-amine, (5S)-3-bromo-7-iodospiro[chromeno[2,3-b]pyridine-5,4′-[1,3]oxazol]-2′-amine [Example 762]”, for which the IC50 amounted to 0.085 µM in test [1] (setting [6]) and 0.004 µM in test [2] (setting [4]).
Regarding `Cc1ncncc1-c1ccc2c(c1)[C@@]1(COC(N)=N1)c1cc(-c3ccnc(F)c3)ncc1O2` [Example 809, (5S)-3-(2-fluoro-4-pyridinyl)-7-(4-methyl-5-pyrimidinyl)spiro[chromeno[2,3-c]pyridine-5,4′-[1,3]oxazol]-2′-amine], the figures for the IC50 in test [1] (setting [3]) and in test [2] (setting [4]) were 0.518 µM and 0.0083 µM, respectively.
In the case of `NC1=N[C@@]2(CO1)c1cc(OCCCc3ccccc3)ccc1Oc1ncc(-c3cccnc3)cc12` [Example 981, (5S)-7-(3-phenylpropoxy)-3-(3-pyridinyl)spiro[chromeno[2,3-b]pyridine-5,4′-[1,3]oxazol]-2′-amine], the values for the IC50 in test [1] (setting [3]) and in test [2] (setting [4]) were 0.262 µM and 0.0222 µM, respectively.
Consider `NC1=N[C@@]2(CS1)c1cc(-c3cccnc3)ccc1Oc1c2cc(-c2cccnc2)nc1F` [Example 1031, (5S)-1-fluoro-3,7-di-3-pyridinylspiro[chromeno[2,3-c]pyridine-5,4′-[1,3]thiazol]-2′-amine], for which the IC50 amounted to 0.003 µM in test [1] (setting [3]) and 0.0003 µM in test [2] (setting [4]).
In the case of `CC1(C#Cc2cncc(-c3ccc4c(c3)[C@@]3(COC(N)=N3)c3cc(-c5ccnc(F)c5)ncc3O4)c2)COC1` [Example 812, (5S)-3-(2-fluoro-4-pyridinyl)-7-(5-((3-methyl-3-oxetanyl)ethynyl)-3-pyridinyl)spiro[chromeno[2,3-c]pyridine-5,4′-[1,3]oxazol]-2′-amine], the IC50 amounted to 0.46 µM in test [1] (setting [3]) and 0.0055 µM in test [2] (setting [4]).
Turning to `Cc1cncc(-c2ccc3c(c2)[C@@]2(COC(N)=N2)c2cc(OCC4(C)COC4)c(F)cc2O3)c1` [Example 328, (4S)-3′-fluoro-2′-((3-methyl-3-oxetanyl)methoxy)-7′-(5-methyl-3-pyridinyl)spiro[1,3-oxazole-4,9′-xanthen]-2-amine], the IC50 in test [1] (setting [3]) was 0.0456 µM; in test [2] (setting [4]) it was 0.0236 µM.
In the case of `NC1=N[C@@]2(CO1)c1cc(-c3cncc(Cl)c3)ccc1Oc1c(F)cc(C3=CCOCC3)cc12` [Example 210, (4S)-7′-(5-chloro-3-pyridinyl)-2′-(3,6-dihydro-2H-pyran-4-yl)-4′-fluorospiro[1,3-oxazole-4,9′-xanthen]-2-amine], the IC50 stood at 0.003 µM in test [1] (Homo sapiens, HEK293, read-out: HEK cell assay (uM), average IC50, HEK cell assay) and 0.0003 µM in test [2] (BACE 1 FRET assay (uM)).
Consider `COc1nc(Cl)cc2c1Oc1ccc(-c3cccnc3F)cc1[C@@]21COC(N)=N1` [Example 828, (5S)-3-chloro-7-(2-fluoro-3-pyridinyl)-1-methoxyspiro[chromeno[2,3-c]pyridine-5,4′-[1,3]oxazol]-2′-amine], for which the IC50 in test [1] (setting [3]) was ≥ 10 µM; in test [2] (setting [4]) it was 0.134 µM.
As to `COc1nc(-c2ccnc(F)c2)cc2c1Oc1ccc(-c3cccnc3F)cc1[C@@]21COC(N)=N1` [Example 831, (5S)-7-(2-fluoro-3-pyridinyl)-3-(2-fluoro-4-pyridinyl)-1-methoxyspiro[chromeno[2,3-c]pyridine-5,4′-[1,3]oxazol]-2′-amine], the IC50 worked out at 0.07 µM in test [1] (setting [3]) and 0.0011 µM in test [2] (setting [4]).
Turning to `NC1=N[C@]2(CS1)c1cc(-c3cccnc3)ccc1Oc1ncc(N3CCOCC3)cc12` [Example 601, (5R)-3-(4-morpholinyl)-7-(3-pyridinyl)spiro[chromeno[2,3-b]pyridine-5,4′-[1,3]thiazol]-2′-amine], the figures for the IC50 in test [1] (setting [5]) and in test [2] (setting [4]) were 0.724 µM and 2.29 µM, respectively.
The like results for `NC1=N[C@@]2(CO1)c1cc(-c3cncc(N4CC[C@H](F)C4)c3)ccc1Oc1cnc(Cl)cc12` [Example 428, (5S)-3-chloro-7-(5-((3S)-3-fluoro-1-pyrrolidinyl)-3-pyridinyl)spiro[chromeno[2,3-c]pyridine-5,4′-[1,3]oxazol]-2′-amine] were, in that order, 2.2 µM and 0.604 µM.
`CC1(C)CN(c2cnc3c(c2)[C@]2(COC(N)=N2)c2cc(C#CC4CC4)ccc2O3)CCO1` [Example 179, (5S)-7-(cyclopropylethynyl)-3-(2,2-dimethyl-4-morpholinyl)spiro[chromeno[2,3-b]pyridine-5,4′-[1,3]oxazol]-2′-amine]: the IC50 in test [1] (setting [3]) turned out to be 0.0641 µM; in test [2] (setting [4]) it was 0.0111 µM.
Take `N#Cc1cccc(-c2ccc3c(c2)[C@@]2(COC(N)=N2)c2cc(N4CC[C@H](F)C4)ncc2O3)c1` [Example 426, 3-((5S)-2′-amino-3-((3S)-3-fluoro-1-pyrrolidinyl)spiro[chromeno[2,3-c]pyridine-5,4′-[1,3]oxazol]-7-yl)benzonitrile]: the IC50 in test [1] (setting [5]) came to 0.0168 µM; in test [2] (setting [4]), 0.0035 µM.
For “(4R)-4′-fluoro-2′-methoxy-7′-(5-pyrimidinyl)spiro[1,3-thiazole-4,9′-xanthen]-2-amine [Example 215]”, the values for the IC50 in test [1] (setting [6]) and in test [2] (setting [4]) were 0.113 µM and 0.0081 µM, respectively.
In the case of `CC1(C#Cc2ccc3c(c2)[C@@]2(COC(N)=N2)c2cc(C4=CCOCC4)cnc2O3)COC1` [Example 462, (5S)-3-(3,6-dihydro-2H-pyran-4-yl)-7-((3-methyl-3-oxetanyl)ethynyl)spiro[chromeno[2,3-b]pyridine-5,4′-[1,3]oxazol]-2′-amine], the IC50 in test [1] (setting [5]) turned out to be 0.0189 µM; in test [2] (setting [4]) it was 0.0059 µM.
The like results for `NC1=N[C@@]2(CO1)c1cc(-c3cccnc3F)ccc1Oc1cnc(-c3cncc(F)c3)cc12` [Example 569, (5S)-7-(2-fluoro-3-pyridinyl)-3-(5-fluoro-3-pyridinyl)spiro[chromeno[2,3-c]pyridine-5,4′-[1,3]oxazol]-2′-amine] were, in that order, 0.0182 µM and 0.0012 µM.
As for `NC1=N[C@@]2(CO1)c1cc(-c3cccnc3F)ncc1Oc1c(F)cc(C3=CCOCC3)cc12` [Example 306, (5S)-7-(3,6-dihydro-2H-pyran-4-yl)-9-fluoro-3-(2-fluoro-3-pyridinyl)spiro[chromeno[2,3-c]pyridine-5,4′-[1,3]oxazol]-2′-amine], the IC50 in test [1] (setting [3]) was determined as 0.0567 µM; in test [2] (setting [4]), 0.0015 µM.

These data come from patent US8883782B2, “Spiro-tetracyclic ring compounds as beta-secretase modulators and methods of use” (Amgen Inc., priority 2010, dated 2014).
